Where two headings read alike, the source gives them in different places.
Experiments:
[1] = molecular target: T1, Drosophila OR47a (Drosophila melanogaster, UniProt P81921); experiment: Calcium ion fluorescence (GCaMP6) assay, OR47a stable HEK293 cell line; type: cell-based; settings: for OR47a response (VUAA1-normalized) at 1 μM / OR47a response (VUAA1-normalized) at 10 μM / OR47a response (VUAA1-normalized) at 100 μM / Average response: OR47a cell line; for Average response: mean of biological replicates; for OR47a Average response (VUAA1-normalized): 50 μM VUAA1 = 1
T1 construct: expressed in transfected cells
T1 sequence (P81921 1-385): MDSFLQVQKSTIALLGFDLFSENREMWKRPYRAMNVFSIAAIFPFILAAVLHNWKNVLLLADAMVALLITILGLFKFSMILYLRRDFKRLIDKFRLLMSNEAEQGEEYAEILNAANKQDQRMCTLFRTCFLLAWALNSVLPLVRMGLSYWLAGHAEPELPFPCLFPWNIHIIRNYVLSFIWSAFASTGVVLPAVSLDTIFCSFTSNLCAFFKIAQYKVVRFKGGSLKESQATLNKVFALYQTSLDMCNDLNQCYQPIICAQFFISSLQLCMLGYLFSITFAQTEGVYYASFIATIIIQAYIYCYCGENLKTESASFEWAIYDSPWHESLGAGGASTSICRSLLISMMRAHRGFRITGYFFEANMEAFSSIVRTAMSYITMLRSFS
T1 sequence (Q9VNB5 1-486 partner): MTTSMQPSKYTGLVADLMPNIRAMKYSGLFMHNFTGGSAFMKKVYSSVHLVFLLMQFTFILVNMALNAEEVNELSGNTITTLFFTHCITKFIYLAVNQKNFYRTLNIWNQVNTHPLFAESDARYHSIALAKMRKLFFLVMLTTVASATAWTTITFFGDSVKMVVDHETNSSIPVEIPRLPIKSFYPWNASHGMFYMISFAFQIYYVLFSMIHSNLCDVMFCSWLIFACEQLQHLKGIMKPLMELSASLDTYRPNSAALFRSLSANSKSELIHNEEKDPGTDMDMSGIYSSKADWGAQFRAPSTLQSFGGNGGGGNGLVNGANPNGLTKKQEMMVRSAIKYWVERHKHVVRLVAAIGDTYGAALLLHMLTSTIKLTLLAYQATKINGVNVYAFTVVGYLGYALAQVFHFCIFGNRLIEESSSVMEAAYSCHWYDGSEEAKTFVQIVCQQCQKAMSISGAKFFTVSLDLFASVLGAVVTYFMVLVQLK
Procedure, shortened: (§1)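 HEK293 lines stably expressing each Drosophila OR with GCaMP6, doxycycline-induced (1 μg/mL) 48 or 72 h. Fluorescence recorded 5 s baseline then 30 s after VOC injection at pH 7.3; ΔF=(FMAX−F0)/F0, normalized to 50 µM VUAA1 response per line, triplicate wells averaged; concentration series 0.01–100 μM.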

[2] = molecular target: T2, Drosophila OR10a (Drosophila melanogaster, UniProt Q9VYZ1); experiment: Calcium ion fluorescence (GCaMP6) assay, OR10a stable HEK293 cell line; type: cell-based; settings: for EC50: single-concentration estimate from 100 µM, plate 2019.12.05; for OR10a response (VUAA1-normalized) at 1 μM / OR10a response (VUAA1-normalized) at 10 μM / OR10a response (VUAA1-normalized) at 100 μM: OR10a cell line
T2 construct: expressed in transfected cells
T2 sequence (Q9VYZ1 1-406): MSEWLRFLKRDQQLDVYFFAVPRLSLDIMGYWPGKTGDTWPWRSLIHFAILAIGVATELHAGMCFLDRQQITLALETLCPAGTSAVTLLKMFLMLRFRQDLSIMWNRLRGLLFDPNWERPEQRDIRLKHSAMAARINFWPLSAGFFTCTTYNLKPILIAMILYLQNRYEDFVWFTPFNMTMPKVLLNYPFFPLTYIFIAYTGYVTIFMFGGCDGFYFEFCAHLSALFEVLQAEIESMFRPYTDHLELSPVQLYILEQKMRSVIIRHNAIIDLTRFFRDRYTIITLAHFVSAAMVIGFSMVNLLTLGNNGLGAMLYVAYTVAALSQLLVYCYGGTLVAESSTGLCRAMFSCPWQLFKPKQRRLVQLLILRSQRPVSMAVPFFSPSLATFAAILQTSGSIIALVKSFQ
T2 sequence (Q9VNB5 1-486 partner): T1 sequence (Q9VNB5 1-486 partner)
Procedure, shortened: as §1

[3] = ligand concentration 1 (unit not given), threshold 0.05, below shown as 0
[4] = ligand concentration 10 (unit not given), threshold 0.05, below shown as 0
[5] = ligand concentration 100 (unit not given), threshold 0.05, below shown as 0
[6] = 100 µM, OR10a clone G5, single plate 2019.12.05
[7] = HEK293, 1 μM VOC, 50 μM VUAA1 = 1, responses not exceeding 0.05 considered 0, read-out: OR10a Average response (VUAA1-normalized)
[8] = HEK293, 10 μM VOC, 50 μM VUAA1 = 1, responses not exceeding 0.05 considered 0, read-out: OR10a Average response (VUAA1-normalized)
[9] = HEK293, 100 μM VOC, 50 μM VUAA1 = 1, responses not exceeding 0.05 considered 0, read-out: OR10a Average response (VUAA1-normalized)
[10] = HEK293, read-out: OR47a Average response (VUAA1-normalized)
[11] = HEK293, read-out: OR47a response (VUAA1-normalized response)
[12] = HEK293, read-out: OR10a response (VUAA1-normalized response), VOC concentration 1 μM
[13] = HEK293, read-out: OR10a response (VUAA1-normalized response), VOC concentration 10 μM
[14] = HEK293, read-out: OR10a response (VUAA1-normalized response), VOC concentration 100 μM
[15] = 1 μM VOC, 50 μM VUAA1 = 1, responses not exceeding 0.05 considered 0
[16] = 10 μM VOC, 50 μM VUAA1 = 1, responses not exceeding 0.05 considered 0
[17] = 100 μM VOC, 50 μM VUAA1 = 1, responses not exceeding 0.05 considered 0
[18] = concentration 1, normalized fluorescence change, values below 0.05 threshold given as 0
[19] = concentration 10, normalized fluorescence change, values below 0.05 threshold given as 0
[20] = concentration 100, normalized fluorescence change, values below 0.05 threshold given as 0

COC(=O)c1ccccc1 [methyl benzoate]
OR47a response (VUAA1-normalized) at 1 μM ([1]; VOC concentration 1 μM): 0.00 | OR47a response (VUAA1-normalized) at 10 μM ([1]; VOC concentration 10 μM): 0.00 | OR47a response (VUAA1-normalized) at 100 μM ([1]; VOC concentration 100 μM): 0.06 | Average response ([1]; odorant cc. 1 µM): 0.0138 | Average response ([1]; odorant cc. 10 µM): 0.00 | Average response ([1]; odorant cc. 100 µM): 0.06 | DF norm AVERAGE OR47a [1, 3]: 0 | DF norm AVERAGE OR47a [1, 4]: 0 | DF norm AVERAGE OR47a [1, 5]: 0.05948 | DF norm, all technical replicates [2, 6]: 0.8079 | DF norm, outlier technical replicates removed [2, 6]: 0.8079 | DF, outlier technical replicates removed [2, 6]: 1.408 | DF, all technical replicates ([2]; 100 µM, OR10a clone G5, single plate 2019.12.05, xc+0.1%DMSO): 1.408 | EC50 ([2]; EC50, all technical replicates, OR10a clone G5): 23.8 µM | EC50 ([2]; EC50, outlier technical replicates removed, OR10a clone G5): 23.8 µM | activation at 1 µM [2, 7]: 31% | activation at 10 µM [2, 8]: 64% | activation at 100 µM [2, 9]: 67% | OR10a response (VUAA1-normalized) at 1 μM ([2]; VOC concentration 1 μM): 0.31 | OR10a response (VUAA1-normalized) at 10 μM ([2]; VOC concentration 10 μM): 0.64 | OR10a response (VUAA1-normalized) at 100 μM ([2]; VOC concentration 100 μM): 0.67 | DF norm AVERAGE OR10a [2, 3]: 0.3063 | DF norm AVERAGE OR10a [2, 4]: 0.6425 | DF norm AVERAGE OR10a [2, 5]: 0.6719

CCOC(=O)c1ccccc1 [ethyl benzoate]
activation at 1 µM [1, 10]: 5% | activation at 10 µM [1, 10]: 0% | activation at 100 µM [1, 10]: 10% | activation at 1 µM [1, 11]: 0% | activation at 10 µM [1, 11]: 0% | activation at 100 µM [1, 11]: 10% | Average response ([1]; odorant cc. 1 µM): 0.0468 | Average response ([1]; odorant cc. 10 µM): 0.00 | Average response ([1]; odorant cc. 100 µM): 0.10 | DF norm AVERAGE OR47a [1, 3]: 0 | DF norm AVERAGE OR47a [1, 4]: 0 | DF norm AVERAGE OR47a [1, 5]: 0.09883 | activation at 1 µM ([2]; HEK293, read-out: OR10a Average response (VUAA1-normalized), 1 μM VOC, 50 μM VUAA1 = 1, responses not exceeding 0.05 considered 0): 29% | activation at 10 µM ([2]; HEK293, read-out: OR10a Average response (VUAA1-normalized), 10 μM VOC, 50 μM VUAA1 = 1, responses not exceeding 0.05 considered 0): 45% | activation at 100 µM ([2]; HEK293, read-out: OR10a Average response (VUAA1-normalized), 100 μM VOC, 50 μM VUAA1 = 1, responses not exceeding 0.05 considered 0): 49% | activation at 1 µM [2, 12]: 29% | activation at 10 µM [2, 13]: 45% | activation at 100 µM [2, 14]: 49% | DF norm AVERAGE OR10a [2, 3]: 0.2908 | DF norm AVERAGE OR10a [2, 4]: 0.4538 | DF norm AVERAGE OR10a [2, 5]: 0.4934

CC/C=C\CCOC(C)=O [Z-3-hexenyl acetate]
OR47a response (VUAA1-normalized) at 1 μM ([1]; VOC concentration 1 μM): 0.35 | OR47a response (VUAA1-normalized) at 10 μM ([1]; VOC concentration 10 μM): 0.67 | OR47a response (VUAA1-normalized) at 100 μM ([1]; VOC concentration 100 μM): 0.76 | OR10a response (VUAA1-normalized) at 1 μM ([2]; VOC concentration 1 μM): 0.14 | OR10a response (VUAA1-normalized) at 10 μM ([2]; VOC concentration 10 μM): 0.00 | OR10a response (VUAA1-normalized) at 100 μM ([2]; VOC concentration 100 μM): 0.00

CC/C=C\CCO [Z3-hexenol]
OR47a Average response (VUAA1-normalized) ([1]; 1 μM VOC): 0.03 | OR47a Average response (VUAA1-normalized) ([1]; 10 μM VOC): 0.06 | OR47a Average response (VUAA1-normalized) ([1]; 100 μM VOC): 0.10 | Average response ([1]; odorant cc. 1 µM): 0.0266 | Average response ([1]; odorant cc. 10 µM): 0.0571 | Average response ([1]; odorant cc. 100 µM): 0.10 | DF norm AVERAGE OR47a ([1]; ligand concentration 1 (unit not given), 0.05 threshold, values below shown as 0): 0 | DF norm AVERAGE OR47a ([1]; ligand concentration 10 (unit not given), 0.05 threshold, values below shown as 0): 0.0571 | DF norm AVERAGE OR47a ([1]; ligand concentration 100 (unit not given), 0.05 threshold, values below shown as 0): 0.1005 | OR10a Average response (VUAA1-normalized) [2, 15]: 0.17 | OR10a Average response (VUAA1-normalized) [2, 16]: 0.19 | OR10a Average response (VUAA1-normalized) [2, 17]: 0.10 | DF norm AVERAGE OR10a ([2]; ligand concentration 1 (unit not given), […]): 0.1736 | DF norm AVERAGE OR10a ([2]; ligand concentration 10 (unit not given), […]): 0.1946 | DF norm AVERAGE OR10a ([2]; ligand concentration 100 (unit not given), […]): 0.1046

(-)-alpha-cedrene
Average response ([1]; odorant cc. 1 µM): 0.00 | Average response ([1]; odorant cc. 10 µM): 0.00 | Average response ([1]; odorant cc. 100 µM): 0.02 | OR47a response (VUAA1-normalized response) ([1]; VOC concentration 1 μM): 0.00 | OR47a response (VUAA1-normalized response) ([1]; VOC concentration 10 μM): 0.00 | OR47a response (VUAA1-normalized response) ([1]; VOC concentration 100 μM): 0.00 | DF norm AVERAGE OR47a [1, 18]: 0 | DF norm AVERAGE OR47a [1, 19]: 0 | DF norm AVERAGE OR47a [1, 20]: 0 | DF norm AVERAGE OR10a [2]: 0 | OR10a Average response (VUAA1-normalized) [2, 15]: 0.02 | OR10a Average response (VUAA1-normalized) [2, 16]: 0.06 | OR10a Average response (VUAA1-normalized) [2, 17]: 0.00 | OR10a response (VUAA1-normalized response) ([2]; VOC concentration 1 μM): 0.00 | OR10a response (VUAA1-normalized response) ([2]; VOC concentration 10 μM): 0.06 | OR10a response (VUAA1-normalized response) ([2]; VOC concentration 100 μM): 0.00 | DF norm AVERAGE OR10a [2, 19]: 0.05923

COc1cccc(OC)c1 [1,3-dimethoxy benzene]
activation at 1 µM [1, 11]: 0% | activation at 10 µM [1, 11]: 0% | activation at 100 µM [1, 11]: 0% | Average response ([1]; odorant cc. 1 µM): 0.00 | Average response ([1]; odorant cc. 10 µM): 0.00 | Average response ([1]; odorant cc. 100 µM): 0.0217 | DF norm AVERAGE OR47a [1, 18]: 0 | DF norm AVERAGE OR47a [1, 19]: 0 | DF norm AVERAGE OR47a [1, 20]: 0 | DF norm AVERAGE OR10a [2]: 0 | activation at 1 µM [2, 7]: 0% | activation at 10 µM [2, 8]: 0% | activation at 100 µM [2, 9]: 0% | activation at 1 µM [2, 12]: 0% | activation at 10 µM [2, 13]: 0% | activation at 100 µM [2, 14]: 0%
